± gives the standard deviation of the averaged measurements.
Assays:
Assay in all cases: level (log10 ratio to DMSO vehicle control); higher = higher biomarker level / cell amount than vehicle control
[1] = compound: NS(=O)(=O)C(F)(F)C(F)(F)C(F)(F)C(F)(F)C(F)(F)C(F)(F)C(F)(F)C(F)(F)F [Perfluorooctanesulfonamide] (in DMSO)
Procedure: (§1)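 BioMAP Diversity Plus panel of 12 human primary cell co-culture systems (3C, 4H, LPS, SAg, BT, BF4T, BE3C, CASM3C, HDF3CGF, KF3CT, MyoF, Mphg). Compounds were added 1 h before stimulation and left for 24 h (MyoF 48 h; BT 72 h for soluble read-outs or 6 d for IgG). Biomarkers were read by ELISA, cytotoxicity by SRB, PBMC viability and proliferation by Alamar Blue. Each well value was divided by the mean of 8 DMSO control wells on the same plate and log10 transformed; duplicate blinded samples were tested at 4 concentrations.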

[2] = compound: CCOC(=O)CC(=O)C(F)(F)C(F)(F)F [Ethyl pentafluoropropionyl acetate] (in DMSO)
Procedure: as §1

[3] = compound: CN(C(=O)C(F)(F)C(F)(F)C(F)(F)F)[Si](C)(C)C [N-Methyl-N-trimethylsilylheptafluorobutyramide] (in DMSO)
Procedure: as §1

[4] = compound: O=S(=O)(O)CCC(F)(F)C(F)(F)C(F)(F)C(F)(F)C(F)(F)C(F)(F)C(F)(F)C(F)(F)F [8:2 Fluorotelomer sulfonic acid] (in DMSO)
Procedure: as §1

[5] = compound: O=C(O)C=C(C(F)(F)F)C(F)(F)F [3,3-Bis(trifluoromethyl)-2-propenoic acid] (in DMSO)
Procedure: as §1

[6] = compound: O=C(O)C(F)(F)OC(F)(F)C(F)(F)OC(F)(F)C(F)(F)OC(F)(F)C(F)(F)C(F)(F)C(F)(F)F [Perfluoro-3,6,9-trioxatridecanoic acid] (in DMSO); conditions: 6700 nM
Procedure: as §1

[7] = compound: O=S(=O)(O)C(F)(F)C(F)(F)OC(F)(F)C(F)(F)F [Perfluoro(2-ethoxyethane)sulfonic acid] (in DMSO)
Procedure: as §1

Test System	level (log10) ([1]; 6700 nM)	level (log10) ([1]; 20000 nM)	level (log10) ([2]; 6700 nM)	level (log10) ([2]; 20000 nM)	level (log10) ([2]; 60000 nM)	level (log10) ([3]; 6700 nM)	level (log10) ([3]; 20000 nM)	level (log10) ([3]; 60000 nM)	level (log10) ([4]; 6700 nM)	level (log10) ([4]; 20000 nM)	level (log10) ([4]; 60000 nM)	level (log10) ([5]; 6700 nM)	level (log10) ([5]; 20000 nM)	level (log10) ([5]; 60000 nM)	level (log10) [6]	level (log10) ([7]; 6700 nM)	level (log10) ([7]; 20000 nM)	level (log10) ([7]; 60000 nM)
BF4T:PAI-I	-0.004 ± 0.011	-0.038 ± 0.0099	0.0015 ± 0.011	0.004 ± 0.011	-0.0025 ± 0.011	0.0055 ± 0.04	-0.007 ± 0.017	0.0025 ± 0.0064	0.005 ± 0.0099	0.002 ± 0.011	0.009 ± 0.0042	0.0055 ± 0.0021	0.001 ± 0.0042	-0.0055 ± 0.021	-0.011 ± 0.011	-0.002 ± 0.0014	-0.002 ± 0.0028	0.0105 ± 0.021
SAg:CXCL9/MIG	-0.002 ± 0.0042	-0.0055 ± 0.011	-0.001 ± 0.011	-0.015 ± 0.0099	0.0065 ± 0.0021	0.007 ± 0.0057	-0.009 ± 0.0014	-0.0135 ± 0.0078	0.0005 ± 0.018	-0.008 ± 0.0028	0.001 ± 0.0057	-0.0065 ± 0.012	-0.017 ± 0.0099	0.006 ± 0.0071	-0.001 ± 0.0014	0.007	-0.0025 ± 0.0078	0.0035 ± 0.005
BF4T:MMP-9	-0.006 ± 0.025	-0.113 ± 0.018	0.002 ± 0.038	-0.007 ± 0.044	-0.007 ± 0.044	-0.0305 ± 0.064	-0.012 ± 0.033	0.0095 ± 0.023	0.0065 ± 0.015	-0.003 ± 0.0014	-0.0215 ± 0.005	-0.0155 ± 0.0021	-0.0185 ± 0.018	-0.004 ± 0.021	-0.106 ± 0.079	0.003 ± 0.042	-0.0005 ± 0.019	0.0295 ± 0.0021
SAg:PBMC Cytotoxicity	0.009 ± 0.034	0.0315 ± 0.0064	-0.0055 ± 0.032	-0.005 ± 0.025	-0.0015 ± 0.021	-0.0155 ± 0.00071	0.011 ± 0.014	0.011 ± 0.025	-0.0125 ± 0.015	0 ± 0.0042	0.0075 ± 0.0021	-0.01 ± 0.0028	-0.021 ± 0.016	0.002 ± 0.03	-0.003 ± 0.037	-0.025 ± 0.038	0.0045 ± 0.0092	0.0085 ± 0.0021
3C:HLA-DR	-0.0115 ± 0.043	-0.118 ± 0.082	0.019 ± 0.0099	0.0125 ± 0.054	0.01 ± 0.047	0.0015 ± 0.015	0.0045 ± 0.012	0.0285 ± 0.033	-0.0155 ± 0.012	-0.011 ± 0.0071	-0.011 ± 0.0085	-0.012 ± 0.014	-0.0415 ± 0.039	-0.189 ± 0.031	-0.018 ± 0.04	-0.005	-0.0045 ± 0.005	0.008 ± 0.0099
3C:CXCL9/MIG	0.0225 ± 0.021	0.006 ± 0.028	0.001 ± 0.0028	-0.0015 ± 0.0092	0.0025 ± 0.0078	-0.0045 ± 0.0035	-0.0005 ± 0.0035	0.0065 ± 0.0092	-0.004 ± 0.0014	0.004 ± 0.013	-0.0045 ± 0.0035	-0.015 ± 0.017	-0.004 ± 0.028	0.013 ± 0.025	0.0115 ± 0.00071	-0.0005 ± 0.0064	-0.0045 ± 0.0035	0.0075 ± 0.0021
LPS:CD142/Tissue Factor	-0.024 ± 0.047	-0.043 ± 0.0071	-0.01 ± 0.021	-0.032 ± 0.028	-0.002 ± 0.033	0.015 ± 0.065	0.0255 ± 0.1	-0.0085 ± 0.1	0.0005 ± 0.067	0.024 ± 0.088	-0.0025 ± 0.011	0.0165 ± 0.064	-0.023 ± 0.12	-0.036 ± 0.12	-0.091 ± 0.021	0.0685 ± 0.042	0.1 ± 0.057	0.0485 ± 0.093
BE3C:CD54/ICAM-1	-0.008 ± 0.016	-0.001 ± 0.018	0.0175 ± 0.011	0.0185 ± 0.018	0.006 ± 0.0042	-0.0005 ± 0.005	0.0045 ± 0.0064	0.001 ± 0.0028	0.0215 ± 0.018	0.013 ± 0.0042	-0.02 ± 0.014	-0.004 ± 0.017	0.0025 ± 0.0021	0.031 ± 0.04	-0.688 ± 0.018	0.001 ± 0.011	-0.0115 ± 0.0092	-0.022 ± 0.017
SAg:CD62E/E-Selectin	-0.0165 ± 0.00071	-0.0845 ± 0.015	-0.0005 ± 0.018	-0.006 ± 0.0028	0.004 ± 0.033	-0.017 ± 0.0085	-0.017 ± 0.017	-0.0225 ± 0.021	0.0085 ± 0.042	0.0465 ± 0.013	0.109 ± 0.0042	-0.096 ± 0.0071	-0.192 ± 0.032	-0.459 ± 0.11	-0.019 ± 0.057	0.0015 ± 0.0021	0.001 ± 0.0071	0.033 ± 0.018
SAg:Proliferation	-0.031 ± 0.042	-0.0445 ± 0.036	0.001 ± 0.065	-0.004 ± 0.025	0.0315 ± 0.047	0.0395 ± 0.015	0.0565 ± 0.028	0.0635 ± 0.088	-0.02 ± 0.054	-0.0085 ± 0.011	-0.0735 ± 0.0035	0.004 ± 0.0085	-0.0715 ± 0.022	-0.462 ± 0.032	-0.0295 ± 0.042	-0.0725 ± 0.012	-0.048 ± 0.025	-0.038 ± 0.024
BF4T:CXCL8/IL-8	0.003 ± 0.0057	0.0405 ± 0.013	0.0095 ± 0.012	-0.0015 ± 0.023	0.021 ± 0.011	-0.008 ± 0.024	-0.0025 ± 0.018	0.0025 ± 0.019	0.0015 ± 0.0035	-0.0105 ± 0.0078	-0.0055 ± 0.0078	-0.0135 ± 0.022	-0.022 ± 0.0099	0.0345 ± 0.05	0.0165 ± 0.049	0.008 ± 0.0099	0.005 ± 0.024	0.0365 ± 0.011
BT:Secreted IgG	-0.018 ± 0.0085	-0.141 ± 0.1	0.024 ± 0.014	0.025 ± 0.0071	0.013 ± 0.0014	0.01 ± 0.011	0.016 ± 0.03	0.013 ± 0.048	0.032 ± 0.0099	-0.014 ± 0.031	-0.025 ± 0.014	0.0155 ± 0.005	-0.0375 ± 0.052	-0.597 ± 0.16	-0.0225 ± 0.0092	0.0355 ± 0.0035	-0.0135 ± 0.084	-0.0095 ± 0.086
3C:SRB	0.0135 ± 0.022	-0.088 ± 0.0042	0.006 ± 0.0085	0.007 ± 0.0085	0.01 ± 0.034	0.0135 ± 0.013	0.0035 ± 0.032	0.0075 ± 0.011	-0.017 ± 0.0057	-0.019 ± 0.018	-0.0705 ± 0.028	0.0105 ± 0.019	-0.005 ± 0.025	-0.062 ± 0.03	-0.002 ± 0.014	-0.022 ± 0.0042	-0.0025 ± 0.00071	-0.0275 ± 0.0021
BF4T:tPA	-0.059 ± 0.013	0.006 ± 0.02	-0.0045 ± 0.0092	-0.0035 ± 0.0092	-0.0145 ± 0.011	-0.0155 ± 0.015	0.0015 ± 0.032	0.012 ± 0.0057	-0.0045 ± 0.028	-0.0525 ± 0.0021	-0.0465 ± 0.016	-0.0965 ± 0.035	-0.12 ± 0.026	-0.11 ± 0.029	-0.185 ± 0.057	-0.0095 ± 0.022	-0.004 ± 0.021	0.017 ± 0.05
BT:sIL-6	-0.0455 ± 0.023	-0.0485 ± 0.026	0.019 ± 0.099	0.046 ± 0.11	-0.053 ± 0.1	-0.054 ± 0.021	-0.0635 ± 0.0035	0.002 ± 0.02	0.015 ± 0.035	0.0445 ± 0.015	-0.005 ± 0.085	0.035 ± 0.037	-0.0575 ± 0.026	-0.182 ± 0.018	0.0165 ± 0.032	0.006 ± 0.03	-0.029 ± 0.0085	-0.027 ± 0.076
BF4T:Keratin 8/18	-0.0085 ± 0.005	-0.069 ± 0.023	0.0085 ± 0.005	0.0275 ± 0.052	0.002 ± 0.016	-0.0105 ± 0.052	0.0115 ± 0.03	0.013 ± 0.017	0.004 ± 0.0099	-0.0005 ± 0.018	0.0245 ± 0.0078	-0.012 ± 0.0085	-0.012 ± 0.0028	0.007 ± 0.014	-0.0195 ± 0.079	0.0015 ± 0.012	-0.01 ± 0.0028	0.023 ± 0.037

— the supplement of paper PMC10331698
